{"source": "patent US10278971B2", "about": "“Fluorocyclopentenylcytosine methods of use” (Rexahn Pharmaceuticals, Inc., priority 2015, dated 2019)", "key": {"H460 [1]": {"test_system": "H460", "test": "Cell cycle distribution by flow cytometry (PI)", "type": "cell-based, human", "settings": "H460, 1 μM, 24 hour exposure", "procedure": "The effect of RX-3117 on cell cycle regulation and cell death in human non-small cell lung cancer (NSCLC) cell lines A549 (adenocarcinoma), SW1573 (alveolar carcinoma) and SW1573/G- (SW1573 cell line resistant to gemcitabine) and H460 (large cell carcinoma) was assessed. The A549 and H460 cell lines were obtained from American Type Culture Collection (Manassas, Va., USA). The SW1573 cell line, obtained from Dr. Johan van Rijn (see Keiser et al., Cancer Research, 49:2988-2993 (1989)), also served as the parental cell line for SW1573/G-. A549, SW1573, and SW1573/G- and H460 were kept in exponential growth in T25 flasks (Greiner Bio-One GmbH, Frickenhausen, Germany) and cultured in Dulbecco's minimal essential medium (DMEM) or RPMI 1640 (A549) supplemented with 10% heat-inactivated fetal bovine serum (FBS) 1% streptomycin and penicillin 20 mM HEPES and maintained in 37° C. water saturated atmospheres of 5% CO2. For the cell cycle distribution, 1.5×10^5 cells were seeded in a T25 flask (Greiner Bio-One GmbH) and cultured for 72 hours after which 1 μM of RX-3117 was added and incubated for 24 hours. The cells were then harvested. After the treatment, the medium was collected in a 15 ml tube (Greiner Bio-One GmbH). […] The cells stained with the PI solution were analyzed by FACSCalibur™ (BD Biosciences, Mount View, Calif., USA). Data was analyzed with CellQuest™ Pro software."}, "cytidine deaminase (CDA)": {"target": "cytidine deaminase (CDA) (Homo sapiens, UniProt P32320)", "sequence (P32320 whole entry, species assumed)": "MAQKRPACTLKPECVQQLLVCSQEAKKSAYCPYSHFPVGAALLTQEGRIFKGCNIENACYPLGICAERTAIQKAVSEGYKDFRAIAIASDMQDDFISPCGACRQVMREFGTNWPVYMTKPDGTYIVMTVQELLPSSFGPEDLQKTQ", "settings": "cited from earlier work"}, "SW1573 [2]": {"test_system": "SW1573", "test": "Clonogenic assay, radiosensitizing effect", "type": "cell-based, human", "procedure": "(§1) Exponential growing A2780, SW1573, A549, H460 and SW1573/G-cells were exposed to 1 μM RX-3117 or untreated (control) for 24 h and irradiated with single doses γ-radiation (0-6 Gy) using a ^60Co source (Gammacell 200, Atomic Energy of Canada, Ltd). Subsequently, 500 cells/T25 flasks were plated and allowed to form colonies. After ten days colonies were fixed with 100% ethanol and stained with 10% Giemsa stain solution (Merck Chemicals BV, Amsterdam, the Netherlands) for colonies counting. Plating efficiency (PE) was calculated by dividing the number of colonies formed through the number of cells plated and normalized for cytotoxicity induced by control. To illustrate the effect of RX-3117 on radiation, dose modifying factor (DMF) was calculated as described earlier (Bijnsdorp I V, van den Berg J, Kuipers G K, Wedekind L E, Slotman B J, van Rijn J, Lafleur M V M and Sminia P: Radiosensitizing potential of the selective cyclooygenase-2 (COX-2) inhibitor meloxicam on human glioma cells. J Neurooncol 85: 25-31, 2007)."}, "A2780": {"test_system": "A2780", "test": "Clonogenic assay, radiosensitizing effect", "type": "cell-based, human", "procedure": "as §1"}, "SW1573/G-": {"test_system": "SW1573/G-", "test": "Clonogenic assay, radiosensitizing effect", "type": "cell-based, human", "settings": "1 μM pre-incubation 24 h, irradiation", "procedure": "as §1"}, "A549 [3]": {"test_system": "A549", "test": "Clonogenic assay, radiosensitizing effect", "type": "cell-based, human", "settings": "A549, 1 μM pre-incubation 24 h, irradiation 0-6 Gy", "procedure": "as §1"}, "H460 [4]": {"test_system": "H460", "test": "Clonogenic assay, radiosensitizing effect", "type": "cell-based, human", "settings": "H460, 1 μM pre-incubation 24 h, irradiation", "procedure": "as §1"}, "SW1573 [5]": {"test_system": "SW1573", "test": "Cell cycle distribution and apoptosis by flow cytometry (PI, Annexin V)", "type": "cell-based, human", "procedure": "(§2) The effect of RX-3117 on cell cycle regulation and cell death in human non-small cell lung cancer (NSCLC) cell lines A549 (adenocarcinoma), SW1573 (alveolar carcinoma) and SW1573/G- (SW1573 cell line resistant to gemcitabine) and H460 (large cell carcinoma) was assessed. The A549 and H460 cell lines were obtained from American Type Culture Collection (Manassas, Va., USA). The SW1573 cell line, obtained from Dr. Johan van Rijn (see Keiser et al., Cancer Research, 49:2988-2993 (1989)), also served as the parental cell line for SW1573/G-. A549, SW1573, and SW1573/G- and H460 were kept in exponential growth in T25 flasks (Greiner Bio-One GmbH, Frickenhausen, Germany) and cultured in Dulbecco's minimal essential medium (DMEM) or RPMI 1640 (A549) supplemented with 10% heat-inactivated fetal bovine serum (FBS) 1% streptomycin and penicillin 20 mM HEPES and maintained in 37° C. water saturated atmospheres of 5% CO2. For the cell cycle distribution, 1.5×10^5 cells were seeded in a T25 flask (Greiner Bio-One GmbH) and cultured for 72 hours after which 1 μM of RX-3117 was added and incubated for 24 hours. The cells were then harvested. After the treatment, the medium was collected in a 15 ml tube (Greiner Bio-One GmbH). The cells were washed with ice cold PBS and trypsinized (Lonza) at 37° C. The collected medium was used to inactivate trypsin of the corresponding sample and again collected in the 15 ml tube. The cells were centrifuged with the standard centrifuge program, 5 minutes at 4° C. and […]. The medium was removed, pellet washed with 1 ml PBS/0.01% BSA and centrifuged. After removal of the supernatant, the cells were fixed with 1 ml 70% ethanol and incubated at −20° C. for at least 24 hours. Subsequently, the cells were centrifuged, washed with 1 ml PBS/0.1% BSA and transferred to a FALCON FACS tube (BD, Franklin Lakes, N.J., USA). The cells were centrifuged, and the supernatant was removed followed by the addition of 0.5 μg propidium iodide (PI) (Sigma, St. Louis, Mo., USA), 0.1% trisodium citrate (Riedel-de Haen, Sigma-Aldrich Laborchemikalien GmbH, St. Louis, Mo., USA), 0.1% Triton X-100™ (Merck) and 0.1 mg/ml RNase (Sigma) (PI solution) to the samples. Subsequently, for at least 15 minutes, the cells were incubated on ice with the PI solution to stain the DNA before starting the analysis. The cells stained with the PI solution were analyzed by FACSCalibur™ (BD Biosciences, Mount View, Calif., USA). Data was analyzed with CellQuest™ Pro software.\n(§3) Cell cycle distribution and apoptosis were analyzed by plating cells in flat bottom 6 well plates (Greiner Bio-One GmbH, Frickenhausen, Germany) at the density of 5,000 cells and allowed to attach for 24 h. Thereafter cytotoxic concentrations of 5×IC50 were added. The exposure time was 24 h and 48 h and for comparison the control group was included. At each time point total amount of adherent and floating cells were harvested in round-bottom FALCON tubes (BD, Franklin Lakes, N.J., USA). After centrifugation, cell pellets were resuspended in 1.0 ml propidium iodide (PI) solution (50 ug/ml PI, 0.1% sodium citrate 0.1% Triton X-100, 0.1 mg/ml ribonuclease A) or 10 ul Annexin V (cat#31490014, Immunotools) and left on ice for 30 minutes. Subsequently, samples were analyzed using FACSCalibur (BD Biosciences, Mount View, Calif., USA). For data analysis CELLQuest™ software was carried out, using gates on DNA histograms to estimate the amount of cells in sub-G1 phase (apoptotic cells)."}, "A549 [6]": {"test_system": "A549", "test": "Cell cycle distribution and apoptosis by flow cytometry (PI, Annexin V)", "type": "cell-based, human", "procedure": "as §2, §3"}}, "data": [{"smiles": "Nc1ccn([C@@H]2C(F)=C(CO)[C@@H](O)[C@H]2O)c(=O)n1", "note": "[RX-3117, 4-amino-1-((1S,4R,5S)-2-fluoro-4,5-dihydroxy-3-hydroxymethyl-cyclopent-2-enyl)-1H-pyrimidin-2-one]", "values": [{"measurement": "accumulation of cells in the G1 phase", "setting": "H460 [1]", "value": "induced accumulation"}, {"measurement": "increased accumulation of cells in the G1 phase", "setting": "H460 [1]", "value": "20-40%"}, {"measurement": "substrate for cytidine deaminase (CDA)", "setting": "cytidine deaminase (CDA); Peters et al. 2013", "value": "poor substrate"}, {"measurement": "rate of deamination", "setting": "cytidine deaminase (CDA); compared with gemcitabine", "value": "much slower than gemcitabine"}, {"measurement": "colonies outgrowth, fractionated radio therapy", "setting": "SW1573 [2]; SW1573, 1 μM prior to 5 times 2 Gy", "value": "lowest colonies outgrowth"}, {"measurement": "dose modifying factor (DMF)", "setting": "SW1573 [2]; SW1573, 5 μM (FIG. 16 legend) pre-incubation 24 h, irradiation", "value": 1.5}, {"measurement": "dose modifying factor (DMF)", "setting": "A2780; A2780, 1 μM pre-incubation 24 h, irradiation 0-6 Gy", "value": 1.8}, {"measurement": "plating efficiency compared to control", "setting": "A2780; A2780, pre-incubation 1 μM 24 h, 4 Gy", "value": "five times lower"}, {"measurement": "dose modifying factor (DMF)", "setting": "SW1573/G-", "value": 1.4}, {"measurement": "dose modifying factor (DMF)", "setting": "A549 [3]", "value": 1.8}, {"measurement": "radiosensitizing effect", "setting": "H460 [4]", "value": "poor radiosensitizing effect"}, {"measurement": "accumulation of cells in the G1 phase", "setting": "SW1573 [5]; SW1573, 1 μM, 24 hour exposure", "value": "induced accumulation"}, {"measurement": "increased accumulation of cells in the G1 phase", "setting": "SW1573 [5]; SW1573, 1 μM, 24 hour exposure", "value": "20-40%"}, {"measurement": "apoptosis, Annexin V stained cells", "setting": "SW1573 [5]; SW1573, 10 μM, 24, 48, 72 and 96 hour exposure", "value": "induced apoptosis"}, {"measurement": "apoptosis, PI stained cells in the sub-G1 phase", "setting": "SW1573 [5]; SW1573, 5×IC50, 24 and 48 hour exposure", "value": "induced apoptosis"}, {"measurement": "accumulation of cells in the S-phase", "setting": "SW1573 [5]; SW1573, 5×IC50, 24 and 48 hours", "value": "induced the accumulation"}, {"measurement": "cell kill", "setting": "SW1573 [5]; SW1573, 24 hour exposure", "value": "No cell kill"}, {"measurement": "cell kill", "setting": "SW1573 [5]; SW1573, 48 hour exposure", "value": 15, "unit": "%"}, {"measurement": "accumulation of cells in the G1 phase", "setting": "A549 [6]; A549, 1 μM, 24 hour exposure", "value": "induced accumulation"}, {"measurement": "increased accumulation of cells in the G1 phase", "setting": "A549 [6]; A549, 1 μM, 24 hour exposure", "value": "20-40%"}, {"measurement": "apoptosis, Annexin V stained cells", "setting": "A549 [6]; A549, 5 μM, 24, 48, 72 and 96 hour exposure", "value": "induced apoptosis"}, {"measurement": "apoptosis, PI stained cells in the sub-G1 phase", "setting": "A549 [6]; A549, 5×IC50, 24 and 48 hour exposure", "value": "induced apoptosis"}, {"measurement": "accumulation of cells in the S-phase", "setting": "A549 [6]; A549, 5×IC50, 24 and 48 hours", "value": "induced the accumulation"}, {"measurement": "cell kill", "setting": "A549 [6]; A549, 24 hour exposure", "value": "No cell kill"}, {"measurement": "accumulation in S phase", "setting": "A549 [6]; A549, 48 hour exposure", "value": 45, "unit": "%"}, {"measurement": "cell kill", "setting": "A549 [6]; A549, 48 hour exposure", "value": 8, "unit": "%"}]}]}
